Measurements taken from PubChem BioAssay AID250 (DTP/NCI, 2004).
Where “and” joins values, the source holds several entries; their conditions need not be identical. Equal entries are not always repeated. Inconclusive results and toxic doses are left out.

Tested on: BDF1 mice, L1210 leukemia sc, survival T/C
Assay: NCI In Vivo Anticancer Drug Screen. Data for tumor model L1210 Leukemia (subcutaneous) in B6D2F1 (BDF1) mice
Conditions: endpoint: median survival time, higher = longer survival
Outline: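 Transplantable tumor-bearing mice; survival or tumor size recorded; result = T/C, treated vs vehicle control.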

[1] = dose: 65.0 mg/kg/injection, schedule: Q01DX Z (sc), vehicle: methylcellulose (MC)
[2] = dose: 108.0 mg/kg/injection, schedule: Q01DX Z (sc), vehicle: methylcellulose (MC)
[3] = dose: 180.0 mg/kg/injection, schedule: Q01DX Z (sc), vehicle: methylcellulose (MC)
[4] = dose: 300.0 mg/kg/injection, schedule: Q01DX Z (sc), vehicle: methylcellulose (MC)
[5] = dose: 500.0 mg/kg/injection, schedule: Q01DX Z (sc), vehicle: methylcellulose (MC)

Which T/C (dose: 1.8 mg/kg/injection, schedule: Q01DX Z (sc), vehicle: saline) does the source give for `CCCC(=O)NC1=C(N2CC2)C(=O)C(NC(=O)CCC)=C(N2CC2)C1=O` here?
Its T/C is 100 % of control.

What about the T/C (dose: 3.0 mg/kg/injection, schedule: Q01DX Z (sc), vehicle: saline) of the same molecule?
Its T/C is 111 % of control.

What about the T/C (dose: 8.4 mg/kg/injection, schedule: Q01DX Z (sc), vehicle: saline) of the same molecule?
The T/C was 183 % of control.

And the T/C (dose: 14.0 mg/kg/injection, schedule: Q01DX Z (sc), vehicle: saline)?
The T/C was 150 % of control.

What about the T/C (dose: 23.0 mg/kg/injection, schedule: Q01DX Z (sc), vehicle: saline) of the same molecule?
Its T/C is 122 % of control.

`CC[C@H]1CN2CCc3cc(OC)c(OC)cc3[C@@H]2C[C@@H]1C[C@H]1NCCc2cc(OC)c(OC)cc21` was tested. Which T/C (dose: 0.39 mg/kg/injection, schedule: Q03HX003 (sc), vehicle: saline) did it give?
Its T/C is 107 % of control.

And the T/C (dose: 0.65 mg/kg/injection, schedule: Q03HX003 (sc), vehicle: saline)?
Its T/C is 92 % of control.

And the T/C (dose: 1.08 mg/kg/injection, schedule: Q03HX003 (sc), vehicle: saline)?
The T/C was 100 % of control.

And the T/C (dose: 1.8 mg/kg/injection, schedule: Q01DX009 (sc), vehicle: saline)?
The T/C was 100 % of control.

And the T/C (dose: 1.8 mg/kg/injection, schedule: Q03HX003 (sc), vehicle: saline)?
Its T/C is 114 % of control.

And the T/C (dose: 3.0 mg/kg/injection, schedule: Q01DX009 (sc), vehicle: saline)?
Its T/C is 103 % of control.

What about the T/C (dose: 5.0 mg/kg/injection, schedule: Q04DX003 (sc), vehicle: saline) of the same molecule?
The T/C was 96 % of control.

And the T/C (dose: 8.4 mg/kg/injection, schedule: Q04DX003 (sc), vehicle: saline)?
Its T/C is 107 % of control.

What about the T/C (dose: 16.0 mg/kg/injection, schedule: Q01DX001 (ip), vehicle: acid diluted with saline) of the same molecule?
Its T/C is 124 % of control.

Which T/C (dose: 2.5 mg/kg/injection, schedule: Q01DX Z (sc), vehicle: methylcellulose (MC)) does the source give for `O=C(O)c1[nH]c(=O)[nH]c(=O)c1F` here?
The T/C was 105 % of control.

And the T/C (dose: 8.0 mg/kg/injection, schedule: Q01DX Z (sc), vehicle: saline)?
The T/C was 166 % of control.

What about the T/C (dose: 10.0 mg/kg/injection, schedule: Q01DX Z (sc), vehicle: methylcellulose (MC)) of the same molecule?
Its T/C is 158 % of control.

What about the T/C (dose: 16.0 mg/kg/injection, schedule: Q01DX Z (sc), vehicle: saline) of the same molecule?
The T/C was 150 % of control.

And the T/C (dose: 20.0 mg/kg/injection, schedule: Q01DX Z (sc), vehicle: methylcellulose (MC))?
Its T/C is 164 % of control.

What about the T/C (dose: 32.0 mg/kg/injection, schedule: Q01DX Z (sc), vehicle: saline) of the same molecule?
The T/C was 166 % of control.

And the T/C (dose: 40.0 mg/kg/injection, schedule: Q01DX Z (sc), vehicle: methylcellulose (MC))?
The T/C was 176 % of control.

And the T/C (dose: 64.0 mg/kg/injection, schedule: Q01DX Z (sc), vehicle: saline)?
Its T/C is 155 % of control.

And the T/C (dose: 128.0 mg/kg/injection, schedule: Q01DX Z (sc), vehicle: saline)?
Its T/C is 155 % of control.

And the T/C (dose: 256.0 mg/kg/injection, schedule: Q01DX Z (sc), vehicle: saline)?
Its T/C is 150 % of control.

Which T/C [1] does the source give for `CCOC(=O)NP(=O)(N1CC1(C)C)N1CC1(C)C` (stereo unspecified) here?
The T/C was 91 % of control.

What about the T/C [2] of the same molecule?
The T/C was 100 % of control.

And the T/C (dose: 130.0 mg/kg/injection, schedule: Q01DX Z (sc), vehicle: methylcellulose (MC))?
The T/C was 95 % of control.

What about the T/C [3] of the same molecule?
Its T/C is 100 % of control.

What about the T/C (dose: 216.0 mg/kg/injection, schedule: Q01DX Z (sc), vehicle: methylcellulose (MC)) of the same molecule?
The T/C was 100 % of control.

What about the T/C [4] of the same molecule?
Its T/C is 100 % of control.

What about the T/C [5] of the same molecule?
Its T/C is 100 % of control.

Which T/C (dose: 50.0 mg/kg/injection, schedule: Q04DX003 (ip), vehicle: other) does the source give for `COC(=O)Nc1nc2ccc(C(=O)c3cccs3)cc2[nH]1` here?
The T/C was 118 % of control.

And the T/C (dose: 70.0 mg/kg/injection, schedule: Q04DX003 (iv), vehicle: other)?
The T/C was 161 % of control.

What about the T/C (dose: 100.0 mg/kg/injection, schedule: Q04DX003 (iv), vehicle: other) of the same molecule?
Its T/C is 151 % of control.

Which results are given for `CC(=O)[C@@]1(O)CC[C@H]2[C@@H]3C[C@H](C)C4=CC(=O)C=C[C@]4(C)[C@@]3(F)[C@@H](O)C[C@@]21C`?
T/C (dose: 39.0 mg/kg/injection, schedule: Q01DX Z (sc), vehicle: methylcellulose (MC)): 111 % of control; T/C [1]: 105 % of control; T/C [2]: 111 % of control; T/C [3]: 111 % of control; T/C [4]: 111 % of control; T/C [5]: 100 % of control

Which results are given for `CS(=O)(=O)OCCCNCCCOS(C)(=O)=O`?
T/C (dose: 15.0 mg/kg/injection, schedule: Q01DX009 (sc), vehicle: saline): 111 % of control; T/C (dose: 30.0 mg/kg/injection, schedule: Q01DX009 (sc), vehicle: saline): 108 % of control; T/C (dose: 39.0 mg/kg/injection, schedule: Q04DX003 (ip), vehicle: saline): 118 % of control; T/C (dose: 180.0 mg/kg/injection, schedule: Q04DX003 (ip), vehicle: saline): 93 % of control

`COc1cccc2c1C(=O)c1c(O)c3c(c(O)c1C2=O)CC(O)(C(=O)CO)CC3OC1CC(N)C(O)C(C)O1` (stereo unspecified) was tested. Which T/C (dose: 11.4 mg/kg/injection, schedule: Q04DX003 (ip), vehicle: saline) did it give?
Its T/C is 87 % of control.

And the T/C (dose: 22.8 mg/kg/injection, schedule: Q04DX003 (ip), vehicle: saline)?
Its T/C is 89 % of control.

And the T/C (dose: 45.6 mg/kg/injection, schedule: Q04DX003 (ip), vehicle: saline)?
The T/C was 90 % of control.

And the T/C (dose: 91.2 mg/kg/injection, schedule: Q04DX003 (ip), vehicle: saline)?
Its T/C is 95 % of control.

And the T/C (dose: 182.4 mg/kg/injection, schedule: Q04DX003 (ip), vehicle: saline)?
The T/C was 103 % of control.

What does the source list for `O=c1[nH]c(=O)n([C@H]2CCCO2)cc1F`?
T/C (dose: 39.0 mg/kg/injection, schedule: Q01DX009 (ip), vehicle: water): 107 % of control; T/C (dose: 39.0 mg/kg/injection, schedule: Q01DX009 (sc), vehicle: water): 100 % of control; T/C (dose: 65.0 mg/kg/injection, schedule: Q01DX009 (ip), vehicle: water): 108 % of control; T/C (dose: 65.0 mg/kg/injection, schedule: Q01DX009 (sc), vehicle: water): 109 % of control; T/C (dose: 108.0 mg/kg/injection, schedule: Q04DX003 (ip), vehicle: water): 119 % of control; T/C (dose: 108.0 mg/kg/injection, schedule: Q04DX003 (sc), vehicle: water): 102 % of control; T/C (dose: 180.0 mg/kg/injection, schedule: Q01DX009 (ip), vehicle: water): 120 % of control; T/C (dose: 180.0 mg/kg/injection, schedule: Q01DX009 (sc), vehicle: water): 117 % of control; T/C (dose: 180.0 mg/kg/injection, schedule: Q04DX003 (ip), vehicle: water): 120 % of control; T/C (dose: 180.0 mg/kg/injection, schedule: Q04DX003 (sc), vehicle: water): 110 % of control; T/C (dose: 300.0 mg/kg/injection, schedule: Q01DX009 (ip), vehicle: water): 97 % of control; T/C (dose: 300.0 mg/kg/injection, schedule: Q01DX009 (sc), vehicle: water): 100 % of control; T/C (dose: 300.0 mg/kg/injection, schedule: Q04DX003 (ip), vehicle: water): 152 % of control; T/C (dose: 500.0 mg/kg/injection, schedule: Q04DX003 (sc), vehicle: water): 161 % of control; T/C (dose: 833.0 mg/kg/injection, schedule: Q04DX003 (ip), vehicle: water): 168 % of control; T/C (dose: 833.0 mg/kg/injection, schedule: Q04DX003 (sc), vehicle: water): 106 % of control

Which results are given for `O=NN(CCCl)C(=O)N[C@H]1CCCC[C@@H]1Cl`?
T/C (dose: 3.0 mg/kg/injection, schedule: Q01DX Z (sc), vehicle: carboxymethylcellulose (CMC)): 111 % of control; T/C (dose: 5.0 mg/kg/injection, schedule: Q01DX Z (sc), vehicle: carboxymethylcellulose (CMC)): 111 % of control; T/C (dose: 8.4 mg/kg/injection, schedule: Q01DX Z (sc), vehicle: carboxymethylcellulose (CMC)): 211 % of control; T/C (dose: 11.3 mg/kg/injection, schedule: Q01DX Z (sc), vehicle: carboxymethylcellulose (CMC)): 668 % of control; T/C (dose: 14.0 mg/kg/injection, schedule: Q01DX Z (sc), vehicle: carboxymethylcellulose (CMC)): 336 % of control and 472 % of control; T/C (dose: 22.5 mg/kg/injection, schedule: Q01DX Z (sc), vehicle: carboxymethylcellulose (CMC)): 493 % of control; T/C (dose: 23.0 mg/kg/injection, schedule: Q01DX Z (oral), vehicle: carboxymethylcellulose (CMC)): 326 % of control; T/C (dose: 23.0 mg/kg/injection, schedule: Q01DX Z (sc), vehicle: carboxymethylcellulose (CMC)): 272 % of control and 336 % of control; T/C (dose: 39.0 mg/kg/injection, schedule: Q01DX Z (oral), vehicle: carboxymethylcellulose (CMC)): 189 % of control; T/C (dose: 39.0 mg/kg/injection, schedule: Q01DX Z (sc), vehicle: carboxymethylcellulose (CMC)): 278 % of control; T/C (dose: 45.0 mg/kg/injection, schedule: Q01DX Z (sc), vehicle: carboxymethylcellulose (CMC)): 300 % of control; T/C (dose: 65.0 mg/kg/injection, schedule: Q01DX Z (oral), vehicle: carboxymethylcellulose (CMC)): 163 % of control; T/C (dose: 65.0 mg/kg/injection, schedule: Q01DX Z (sc), vehicle: carboxymethylcellulose (CMC)): 194 % of control; T/C (dose: 90.0 mg/kg/injection, schedule: Q01DX Z (sc), vehicle: carboxymethylcellulose (CMC)): 150 % of control; T/C (dose: 180.0 mg/kg/injection, schedule: Q01DX Z (oral), vehicle: carboxymethylcellulose (CMC)): 115 % of control; T/C (dose: 300.0 mg/kg/injection, schedule: Q01DX Z (oral), vehicle: carboxymethylcellulose (CMC)): 105 % of control
